Experimental data reported in patent US10322161B2, “EPHA4 cyclic peptide antagonists for neuroprotection and neural repair” (Sanford Burnham Prebys Medical Discovery Institute, priority 2014, dated 2019).
Entries after “also recorded” stand apart in the source; their conditions may differ. Blank lines part the entries; values can stand above or below the compound they belong to. Ends that are not written are not given here.

Key:
[1] = Stability of antagonistic activity in plasma
EphA4 [2] = target: T1, EphA4 (Mus musculus, UniProt Q03137); test: ELISA, inhibition of ephrin-A5 AP binding to immobilized EphA4 Fc; conditions: C-terminally amidated peptides
T1 construct: mouse EphA4 ectodomain fused to Fc; purchased R&D Systems
T1 sequence (Q03137 20-547 limits assumed): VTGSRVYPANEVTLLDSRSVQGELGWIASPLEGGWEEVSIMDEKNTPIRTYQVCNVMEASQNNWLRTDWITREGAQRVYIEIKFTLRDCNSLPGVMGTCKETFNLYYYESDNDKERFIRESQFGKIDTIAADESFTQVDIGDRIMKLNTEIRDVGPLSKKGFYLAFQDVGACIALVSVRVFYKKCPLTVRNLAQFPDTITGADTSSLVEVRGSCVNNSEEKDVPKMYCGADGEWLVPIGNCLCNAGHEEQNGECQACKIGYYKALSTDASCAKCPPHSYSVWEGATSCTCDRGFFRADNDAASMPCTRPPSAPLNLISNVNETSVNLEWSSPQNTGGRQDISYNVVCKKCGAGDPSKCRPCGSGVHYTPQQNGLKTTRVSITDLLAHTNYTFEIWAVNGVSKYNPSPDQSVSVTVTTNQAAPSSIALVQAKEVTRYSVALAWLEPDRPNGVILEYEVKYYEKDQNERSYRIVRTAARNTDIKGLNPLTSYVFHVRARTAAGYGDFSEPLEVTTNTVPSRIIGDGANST

[3] = Stability of antagonistic activity in cerebrospinal fluid (CSF); conditions: rat, depending on the conditions, units inside the value
in vitro [4] = conditions: rat, Half-life (t1/2) CSF
[5] = system: other Eph receptors (EphA2, EphA3, EphA5, EphA6, EphA7, EphA8, EphB1, EphB2, EphB3, EphB4, EphB6); test: Eph receptor selectivity ELISA (ephrin-A5 AP / ephrin-B2 AP binding to Eph receptor Fc); conditions: concentration about 100-fold higher than the IC50 value for EphA4
[6] = system: HT22 mouse hippocampal neurons; test: MTT cytotoxicity assay; format: cell-based; conditions: HT22 cells, 24 hours, 30 μM
Experimental: HT22 mouse hippocampal neurons were grown in DMEM supplemented with 10% FBS, 1 mM sodium pyruvate and antibiotics. […] The cells were then incubated for 2 hours in 5 mg/mL MTT (Sigma-Aldrich) in PBS at 37° C. in a CO2 incubator. The resulting formazan crystals were solubilized by addition of 100% DMSO and OD570 was measured.

in vitro [7] = conditions: mouse, plasma, Half-life (t1/2) Plasma
EphA4 [8] = target: EphA4 (Homo sapiens, UniProt P54764); conditions: background statement; cited from earlier work
EphA4 (Homo sapiens, UniProt P54764), sequence (P54764 20-986, species assumed): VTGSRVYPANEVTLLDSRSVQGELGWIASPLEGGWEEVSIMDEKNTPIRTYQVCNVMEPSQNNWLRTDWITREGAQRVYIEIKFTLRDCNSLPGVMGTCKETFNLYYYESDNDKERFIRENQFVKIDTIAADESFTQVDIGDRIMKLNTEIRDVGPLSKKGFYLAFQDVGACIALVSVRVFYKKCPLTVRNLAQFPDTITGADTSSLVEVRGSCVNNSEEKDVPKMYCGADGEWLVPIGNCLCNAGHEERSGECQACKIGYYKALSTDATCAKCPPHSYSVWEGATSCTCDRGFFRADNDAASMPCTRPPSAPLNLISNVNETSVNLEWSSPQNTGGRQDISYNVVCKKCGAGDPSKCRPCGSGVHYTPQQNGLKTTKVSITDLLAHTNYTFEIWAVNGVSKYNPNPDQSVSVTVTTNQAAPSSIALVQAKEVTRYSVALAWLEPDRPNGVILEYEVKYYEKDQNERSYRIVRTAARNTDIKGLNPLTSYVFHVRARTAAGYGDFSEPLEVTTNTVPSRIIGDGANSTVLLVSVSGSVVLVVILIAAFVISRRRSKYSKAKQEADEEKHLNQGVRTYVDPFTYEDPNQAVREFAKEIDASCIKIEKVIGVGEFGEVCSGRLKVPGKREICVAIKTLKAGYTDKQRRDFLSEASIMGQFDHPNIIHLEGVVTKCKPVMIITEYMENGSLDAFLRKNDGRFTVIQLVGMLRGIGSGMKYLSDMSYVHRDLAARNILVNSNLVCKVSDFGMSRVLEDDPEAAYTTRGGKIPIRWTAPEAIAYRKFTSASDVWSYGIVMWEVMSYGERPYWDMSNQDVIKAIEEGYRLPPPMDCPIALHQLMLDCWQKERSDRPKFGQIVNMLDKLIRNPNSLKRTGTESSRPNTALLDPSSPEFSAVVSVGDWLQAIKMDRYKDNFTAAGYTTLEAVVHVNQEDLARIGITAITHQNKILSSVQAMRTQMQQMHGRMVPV

[9] = mouse, plasma, Half-life (t1/2) Plasma

half-life at 200 μM ([1]; mouse, plasma, Half-life (t1/2) Plasma, mouse plasma, 37° C., loss of antagonistic activity): 0.267 h
Compound: CC(C)[C@@H]1NC(=O)[C@@H](NC(=O)[C@H](Cc2ccc(O)cc2)NC(=O)[C@@H]2CCCN2C(=O)[C@H](C)N)CSSC[C@@H](C(=O)O)NC(=O)[C@H](CO)NC(=O)[C@H](Cc2c[nH]c3ccccc23)NC(=O)[C@H](CO)NC(=O)CNC(=O)[C@H](CCCNC(=N)N)NC(=O)[C@H](Cc2ccc(O)cc2)NC1=O [APY, reference compound]

half-life at 200 μM (in vitro [4]): ~72 h
half-life at 200 μM (in vitro [7]): ~72 h
Compound: CC(C)[C@@H]1NC(=O)[C@@H](NC(=O)[C@H](Cc2ccc(O)cc2)NC(=O)[C@@H]2CCCN2C(=O)[C@@H](C)N)CSSC[C@@H](C(N)=O)NC(=O)[C@H](CO)NC(=O)[C@H](Cc2c[nH]c3ccccc23)NC(=O)[C@H](CO)NC(=O)CCNC(=O)[C@H](CCCNC(=N)N)NC(=O)[C@H](Cc2ccc(O)cc2)NC1=O [DAla1-PY-βAla8.am, D-APYCVYRβASWSC-am]

half-life [9]: 0.183 h
Compound: KYLPYWPVLSSL [KYL]
Kd (EphA4 [8]): 800 to 1000 nM

More lines, now with the values behind:

Compound: CC(C)[C@@H]1NC(=O)[C@@H](NC(=O)[C@H](Cc2ccc(O)cc2)NC(=O)[C@@H]2CCCN2C(=O)[C@H](C)N)CSSC[C@@H](C(N)=O)NC(=O)[C@H](CO)NC(=O)[C@H](Cc2c[nH]c3ccccc23)NC(=O)[C@H](CO)NC(=O)[C@H](C)NC(=O)[C@H](CCCNC(=N)N)NC(=O)[C@H](Cc2ccc(O)cc2)NC1=O [APY-Ala8.am]
loss in potency on replacement of Gly8 (EphA4 [2]; relative to APY.am): about 30 fold

Compound: CC(C)[C@@H]1NC(=O)[C@@H](NC(=O)[C@H](Cc2ccc(O)cc2)NC(=O)[C@@H]2CCCN2C(=O)[C@H](C)N)CSSC[C@@H](C(N)=O)NC(=O)[C@H](CO)NC(=O)[C@H](Cc2c[nH]c3ccccc23)NC(=O)[C@H](CO)NC(=O)[C@@H](C)NC(=O)[C@H](CCCNC(=N)N)NC(=O)[C@H](Cc2ccc(O)cc2)NC1=O [APY-DAla8.am]
effect of Gly8 replacement on potency (EphA4 [2]): did not substantially affect potency

Compound: CC(C)[C@@H]1NC(=O)[C@@H](NC(=O)[C@H](Cc2ccc(O)cc2)NC(=O)[C@@H]2CCCN2C(=O)[C@H](C)N)CSSC[C@@H](C(N)=O)NC(=O)[C@H](CO)NC(=O)[C@H](Cc2c[nH]c3ccccc23)NC(=O)[C@H](CO)NC(=O)CCNC(=O)[C@H](CCCNC(=N)N)NC(=O)[C@H](Cc2ccc(O)cc2)NC1=O [APY-βAla8.am, APYCVYRβASWSC-am]
half-life at 200 μM [3]: 0.5 to 3 h
half-life at 200 μM (in vitro [4]): 0.5 to 3 h
inhibition of other Eph receptors [5]: does not inhibit other Eph receptors
cytotoxicity (MTT) [6]: did not reveal significant cytotoxicity; also recorded: does not have detectable cytotoxic effects
increase in stability ([1]; relative to KYL and APY): 2-8 fold
half-life at 200 μM (in vitro [7]): ~2 h
